The values below come from ChEMBL document CHEMBL1201862, “PubChem BioAssay data set” (2004).

Test systems include ACHN; BT-549; CAKI-1; CCRF-CEM; DU-145; Hs-578T; K562; M14; MDA-N; MOLT-4; OVCAR-3; OVCAR-5; OVCAR-8; SF-268; SF-539; SK-MEL-28; SK-OV-3; TK-10; UACC-62; UO-31.
Common to all, as to assay: NCI anticancer screen, dose series, 48 h

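Method: 48-hour compound exposure of cells in 96-well plates, five concentrations, linear interpolation of endpoints. GI50 marks 50% less growth.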 Active and inactive are the calls of the source. Rule as the data show it: active = GI50 up to about 1.1 µM and inactive = higher.

For the compound `CC(C)(C)OC(=O)N1CC(CCl)c2ccc(O)cc21` (stereo not given), the GI50 is 1.11 µM (active) in the assay on ACHN; 1.97 µM (inactive) with BT-549; 2.97 µM (inactive) in the assay on CAKI-1; 1.29 µM (inactive) with CCRF-CEM; 0.589 µM (active) in the assay with DU-145; 2.8 µM (inactive) in the assay on Hs-578T. The GI50 is 2.87 µM (inactive) in the assay on K562; 1.72 µM (inactive) in the assay on M14; 1.86 µM (inactive) with MDA-N; 1.3 µM (inactive) with MOLT-4; 2.51 µM (inactive) with OVCAR-3; 3.27 µM (inactive) in the assay with OVCAR-5. In addition, the GI50 was 3.59 µM (inactive) with OVCAR-8; 1.58 µM (inactive) with SF-268; 2.16 µM (inactive) in the assay with SF-539; 2.09 µM (inactive) in the assay with SK-MEL-28; 5.05 µM (inactive) in the assay with SK-OV-3; 2.4 µM (inactive) with TK-10. Further, the GI50 in the assay on UACC-62 was 2.01 µM (inactive); in the assay with UO-31 it was 2.29 µM (inactive).

In the case of `COCOC1/C=C/CCCCC(=O)C(C)C#CC1` (stereo not given), the GI50 with ACHN is 6.67 µM (inactive); in the assay with BT-549, 6.97 µM (inactive); with CAKI-1 it was 5.09 µM (inactive); with CCRF-CEM, 1.87 µM (inactive); with DU-145, 12.8 µM (inactive); with Hs-578T it was 20.3 µM (inactive). Besides, the GI50 with K562 is 2.97 µM (inactive); with M14 it was 3.72 µM (inactive); in the assay on MDA-N, 11.5 µM (inactive); in the assay on MOLT-4, 2.09 µM (inactive); in the assay with OVCAR-3, 4.13 µM (inactive); in the assay with OVCAR-5 it was 12.8 µM (inactive). Further, the GI50 is 4.18 µM (inactive) with OVCAR-8; 15.1 µM (inactive) in the assay on SF-268; 5.7 µM (inactive) in the assay on SF-539; 12.4 µM (inactive) with SK-MEL-28; 15.8 µM (inactive) in the assay with SK-OV-3; 8 µM (inactive) in the assay on TK-10. Besides, the values for the GI50 in the assay with UACC-62 and in the assay with UO-31 were 2.4 µM (inactive) and 5.7 µM (inactive), respectively.

Take `CCOC(=O)NC(OCCN(C)C)(C(F)(F)F)C(F)(F)F`: the GI50 in the assay on ACHN, in the assay on BT-549, with CAKI-1, in the assay on CCRF-CEM, in the assay with DU-145 and with Hs-578T was > 100 µM (inactive) each time. Besides, the GI50 in the assay on K562, in the assay with M14, in the assay on MDA-N, in the assay on MOLT-4, in the assay with OVCAR-3 and in the assay on OVCAR-5 was > 100 µM (inactive) throughout. For the same compound, the GI50 with OVCAR-8, with SF-268, with SF-539, with SK-MEL-28, in the assay with SK-OV-3 and with TK-10 was > 100 µM (inactive) in each case. The GI50 in the assay on UACC-62 and with UO-31 was > 100 µM (inactive) each time.

Regarding `CSc1c(C)[n+]([O-])c2cc(Cl)c(Cl)cc2[n+]1[O-]`, the GI50 in the assay on ACHN is 16.8 µM (inactive); with BT-549 it was 18.3 µM (inactive); with CAKI-1 it was 18.2 µM (inactive); with CCRF-CEM it was 2.32 µM (inactive); in the assay on DU-145, 16.9 µM (inactive); in the assay on Hs-578T, 24.2 µM (inactive). Also, the GI50 in the assay with K562 was 3.32 µM (inactive); in the assay on M14 it was 19.8 µM (inactive); in the assay with MDA-N it was 16 µM (inactive); in the assay with MOLT-4 it was 2.38 µM (inactive); in the assay with OVCAR-3 it was 11.5 µM (inactive); with OVCAR-5 it was 17.4 µM (inactive). For the same compound, the GI50 was 16.6 µM (inactive) in the assay with OVCAR-8; 18.5 µM (inactive) in the assay with SF-268; 44.8 µM (inactive) in the assay with SF-539; 19 µM (inactive) in the assay with SK-MEL-28; > 100 µM (inactive) in the assay on SK-OV-3; 20.6 µM (inactive) in the assay with TK-10. The GI50 is 14.9 µM (inactive) with UACC-62 and 16.3 µM (inactive) in the assay with UO-31.

As to `COc1ccc(-n2c(=O)n(C)c(=O)n2-c2ccc(OC)cc2)cc1`, the GI50 was > 100 µM (inactive) in the assay on ACHN; > 100 µM (inactive) in the assay on BT-549; > 100 µM (inactive) in the assay with CAKI-1; > 100 µM (inactive) in the assay on CCRF-CEM; > 100 µM (inactive) in the assay with DU-145; 9.48 µM (inactive) with Hs-578T. The GI50 in the assay with K562, with M14, with MDA-N, in the assay with MOLT-4, in the assay with OVCAR-3 and in the assay with OVCAR-5 was > 100 µM (inactive) in each case. In addition, the GI50 in the assay on OVCAR-8, in the assay with SF-268, in the assay with SF-539, in the assay with SK-MEL-28, in the assay on SK-OV-3 and in the assay on TK-10 was > 100 µM (inactive) in each case. The GI50 with UACC-62 and with UO-31 was > 100 µM (inactive) in each case.

As for `O=c1[nH]c2nc[nH]c2c(=O)n1C1CCCCC1`, the GI50 in the assay on ACHN, with BT-549, with CAKI-1, in the assay with CCRF-CEM, in the assay with DU-145 and with Hs-578T was > 100 µM (inactive) each time. In addition, the GI50 in the assay with K562, in the assay on M14, with MDA-N, with MOLT-4, with OVCAR-3 and with OVCAR-5 was > 100 µM (inactive) throughout. The GI50 in the assay with OVCAR-8, with SF-268, in the assay on SF-539, in the assay with SK-MEL-28, in the assay on SK-OV-3 and in the assay with TK-10 was > 100 µM (inactive) in each case. Also, the GI50 in the assay on UACC-62 and with UO-31 was > 100 µM (inactive) each time.

Consider `CC(=O)C(=Cc1ccc(C=C(C(C)=O)C(C)=O)cc1)C(C)=O`, for which the GI50 in the assay on ACHN is 1.76 µM (inactive); in the assay with BT-549 it was 2.05 µM (inactive); in the assay on CAKI-1, 1.74 µM (inactive); with CCRF-CEM, 0.193 µM (active); with DU-145, 3.81 µM (inactive); with Hs-578T it was 3.58 µM (inactive). Besides, the GI50 in the assay with K562 was 0.286 µM (active); with M14, 1.34 µM (inactive); with MDA-N, 2.22 µM (inactive); in the assay on MOLT-4 it was 0.244 µM (active); in the assay with OVCAR-3, 2.01 µM (inactive); in the assay with OVCAR-5 it was 2.79 µM (inactive). Also, the GI50 with OVCAR-8 is 2.05 µM (inactive); with SF-268 it was 1.41 µM (inactive); with SF-539, 2.1 µM (inactive); in the assay on SK-MEL-28, 1.71 µM (inactive); in the assay with SK-OV-3, 6.07 µM (inactive); with TK-10, 2.22 µM (inactive). In addition, the GI50 in the assay with UACC-62 was 1.65 µM (inactive); in the assay on UO-31 it was 1.6 µM (inactive).

Consider `C=C(C(=O)O[C@H]1C(=O)C2=C(C)CCC3C(=C)C(=O)O[C@@H]3C2[C@]1(C)O)C1CC[C@]2(C)CCCC(=C)[C@H]2C1` (stereo not given in full), for which the GI50 in the assay on ACHN was 4.58 µM (inactive); in the assay with BT-549 it was 5.04 µM (inactive); in the assay on CAKI-1 it was 8.71 µM (inactive); in the assay with CCRF-CEM, < 0.01 µM (active); in the assay on DU-145, 4.72 µM (inactive); in the assay with Hs-578T, 4.61 µM (inactive). The GI50 in the assay with K562 was 6.11 µM (inactive); with M14, 7.62 µM (inactive); in the assay on MDA-N, 2.71 µM (inactive); in the assay on MOLT-4, 2.21 µM (inactive); in the assay with OVCAR-3 it was 4.75 µM (inactive); with OVCAR-5 it was 17.7 µM (inactive). For the same compound, the GI50 in the assay with OVCAR-8 was 4.36 µM (inactive); with SF-268 it was 5.6 µM (inactive); with SF-539 it was 4.1 µM (inactive); in the assay with SK-MEL-28, 5.92 µM (inactive); with SK-OV-3 it was 16.9 µM (inactive); in the assay on TK-10 it was 2.55 µM (inactive). The GI50 in the assay with UACC-62 is 1.9 µM (inactive); in the assay with UO-31, 6.34 µM (inactive).

`Cc1ccc2nc(Cl)c(/C=N/N3C(=O)/C(=C/c4ccccc4S)N=C3c3ccccc3)cc2c1`: the GI50 with ACHN was 46.6 µM (inactive); in the assay with BT-549 it was 49.5 µM (inactive); with CAKI-1 it was 44.6 µM (inactive); with CCRF-CEM, 15.5 µM (inactive); with DU-145, 53.3 µM (inactive); in the assay with Hs-578T, 22.3 µM (inactive). The GI50 is 11.7 µM (inactive) in the assay on K562; 23.3 µM (inactive) in the assay with M14; 17 µM (inactive) in the assay with MDA-N; 1.85 µM (inactive) with MOLT-4; 4.8 µM (inactive) in the assay with OVCAR-3; > 100 µM (inactive) in the assay with OVCAR-5. In addition, the GI50 in the assay with OVCAR-8 was 47.8 µM (inactive); in the assay with SF-268 it was 36.6 µM (inactive); in the assay on SF-539, 15.2 µM (inactive); in the assay with SK-MEL-28, > 100 µM (inactive); with SK-OV-3, 22.2 µM (inactive); with TK-10, 48.6 µM (inactive). Besides, the GI50 was 38.7 µM (inactive) in the assay on UACC-62 and 21.9 µM (inactive) in the assay with UO-31.

Consider `Cc1csc2c(P(=O)(OC(C)C)OC(C)C)c(-c3ccccc3)cn12`, for which the GI50 in the assay with ACHN is 15 µM (inactive); in the assay on BT-549, 18.8 µM (inactive); in the assay with CAKI-1 it was 18.2 µM (inactive); in the assay on CCRF-CEM, 16.7 µM (inactive); in the assay with DU-145 it was 18.5 µM (inactive); in the assay with Hs-578T, 17.1 µM (inactive). For the same compound, the GI50 is 17.6 µM (inactive) in the assay with K562; 18.4 µM (inactive) with M14; 17.9 µM (inactive) in the assay on MDA-N; 13 µM (inactive) in the assay on MOLT-4; 14.4 µM (inactive) in the assay on OVCAR-3; 14.6 µM (inactive) with OVCAR-5. Moreover, the GI50 was 17.4 µM (inactive) with OVCAR-8; 16.6 µM (inactive) in the assay on SF-268; 18.3 µM (inactive) in the assay on SF-539; 17.7 µM (inactive) in the assay on SK-MEL-28; 18.5 µM (inactive) with SK-OV-3; 11.5 µM (inactive) in the assay with TK-10. Further, the GI50 is 6.62 µM (inactive) in the assay with UACC-62 and 15.3 µM (inactive) in the assay on UO-31.
